Experimental findings from PubChem BioAssay (NCI) are described below.

Values joined by “and” are separate entries in the source; they are usually repeats but may differ in a detail not shown here. Identical values can stand only once.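 Briefly, cells in 96-well plates were exposed to five compound concentrations for 48 h, and endpoints were estimated by linear interpolation. The concentration for 50% growth inhibition is given as GI50. TGI: total growth inhibition.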

Assay in all cases: inhibition of tumour cell growth, NCI panel, 48 h
Test [1] has as its system XF 498 CNS.
The test system of test [2] is LXFL 529 NSCLC.
Test [3] has as its system KM20L2 colon.
The subject of test [4] is SNB-78 CNS.
In test [5] the test system is DMS 114 small cell lung.
Test [6] has as its system DLD-1 colon.
For test [7], the system named is M19-MEL melanoma.
Test [8] has as its system PC-3 prostate.
Test [9] deals with DU-145 prostate.
Test [10] has as its system T-47D breast.

On to `COc1ccccc1/C=C1\CCC(CCN(C)C)(C2=CCCC2)C1=O` (centres undefined), for which the TGI in test [1] is 31.7 µM; in test [2], 29.6 µM; in test [3], 15.7 µM; in test [4], 65.9 µM; in test [5], 34.2 µM; in test [6], 38.5 µM. The same compound registered a TGI in [7] of 31.7 µM.
Consider `Cc1ccc(-c2cc(-c3ccco3)c(C#N)c(=O)[nH]2)cc1`, for which the TGI in test [2], in test [3], in test [4], in test [6] and in test [7] was above 100 µM in each case.
As for `O=C(/C=C/c1ccccc1)CC1OC(=O)c2ccccc21` (centres undefined), the TGI in test [1], in [2], in [3], in test [5], in test [6] and in test [7] was above 100 µM in each case.
For `CC(C)=CCC/C(C)=C/CC/C(C)=C/Cc1c(O)c2ccccc2oc1=O`, the TGI in [2], in [3], in test [4], in test [5], in [6] and in test [7] was above 100 µM in each case.
Regarding `NC1CCCCC1.[O]=[Ge].[O]=[Ge].[O]=[Ge][OH].[O]=[Ge][OH]`, the results for the GI50 in test [1] and in test [2] were above 100000 nM and above 100 µM, respectively. The TGI in test [1], in test [2], in test [3], in test [4], in [5] and in [6] was above 100 µM in each case. In [7], this compound returned a TGI above 100 µM.
On to `COC(=O)C1C(O)CC(c2ccccn2)N(Cc2ccccc2)C1c1ccccn1` (centres undefined), for which the TGI in [2], in test [3], in [4], in test [5], in test [6] and in test [7] was above 100 µM in each case.
In the case of `CC1CC2CC(=O)CC3(C1)C2CCCN3CCCO` (centres undefined), the TGI in [1], in test [2], in [4], in test [5], in test [6] and in test [7] was above 100 µM in each case.
Regarding `COc1ccc(NC(=O)C(=O)Cc2nc3ccc([N+](=O)[O-])cc3[nH]c2=O)c(OC)c1`, the TGI in [2], in test [3], in test [5], in test [6] and in test [7] was above 100 µM throughout.
Consider `O=C(O)COc1ccc(O)c2c1C(=O)CCCC2=O`, for which the TGI in test [1], in test [2], in test [3], in test [4], in [5] and in test [6] was above 100 µM each time. The same compound gave a TGI in test [7] above 100 µM.
Take `O=C(Nc1ccc(Cl)cc1Cl)C(=O)C(C(=O)c1ccc2ccccc2c1)C1OC(=O)c2ccccc21` (centres undefined): the TGI in [2] was determined as 17.6 µM; in test [4] it was 78.4 µM; in test [5], 46.2 µM; in test [6], 30.9 µM; in test [7], 30.3 µM.
With `O=C(c1ccc(Cl)cc1)c1ccc(OCCCCCCCCCCOc2ccc(C(=O)c3ccc(Cl)cc3)cc2)cc1`, the TGI in test [3], in test [4], in [5] and in [6] was above 100 µM throughout.
With `O=C(Nc1cccs1)c1c(O)[nH]c(=S)[nH]c1=O`, the TGI in test [3], in test [5] and in [6] was above 100 µM each time.
For the compound `COC[C@@H](N=CN1CCc2cc(OC)c(OC)cc2[C@@H]1C)C(C)(C)C`, the TGI in [1], in test [2], in test [3], in test [5], in test [6] and in test [7] was above 100 µM in each case.
Turning to `C=C(CCCCCCCCC)CC(=O)SCCNC(=O)CCNC(=O)C(O)C(C)(C)COP(=O)(O)OP(=O)(O)OCC1OC(n2cnc3c(N)ncnc32)C(O)C1OP(=O)(O)O` (centres undefined), the TGI in test [1] was above 100 µM; in test [2] it was above 100 µM; in [3], above 100 µM; in test [4], 65 µM; in test [8], above 100000 nM; in [5], above 100 µM. For the same compound, the TGI is above 100000 nM in test [9], above 100 µM in test [6], above 100000 nM in [10] and 87.8 µM in test [7].
Take `O=C(c1ccccc1)C1CCCCN1C(=O)c1ccccc1` (centres undefined): the TGI in [2], in [3], in test [4], in [5], in test [6] and in [7] was above 100 µM each time.
Consider `CCCNCCCC(NC(C)=O)C(=O)NCc1ccccc1` (centres undefined), for which the TGI in [1], in test [2], in [3], in [4], in test [5] and in [6] was above 100 µM in each case. The same compound gave a TGI in test [7] above 100 µM.
As for `O=C(O)C1C2CCC(O2)C1C(=O)N1CCCCC1` (centres undefined), the TGI was found to be 16.9 µM in [2]; 13.1 µM in test [3]; 38.3 µM in test [4]; 5.06 µM in [5]; 39.7 µM in [6]; 21.9 µM in test [7].
In the case of `CCCCc1c2c(nc3c1CCc1cc4cc5c(nc4nc1-3)-c1nc3c(c(CCCC)c1CC5)CCCC3)CCCC2`, the TGI in test [2] was above 100 µM; in [3] it was 69.3 µM; in test [4], above 100 µM; in test [5], 88 µM; in [6], above 100 µM; in [7], above 100 µM.
With `O=C1C=CC=CC2CC=C[C@@H](O)C12` (some centres undefined), the TGI is 36.2 µM in [2]; 56 µM in test [3]; above 100 µM in [4]; 38.7 µM in test [5]; above 100 µM in test [6]; 34.2 µM in test [7].
`COc1cc(/C=C\c2ccccc2)cc(OC)c1OC`: the TGI in test [1] is 23.7 µM; in [2], above 68.1 µM; in [3], 3.31 µM; in test [4], above 89.8 µM; in [5] it was above 28 µM; in test [6], above 78.2 µM. This compound returned a TGI in test [7] above 100 µM.
Consider `O=Cc1ccccc1OCCOc1cc(OCCOc2ccccc2C=O)c(OCCOc2ccccc2C=O)cc1OCCOc1ccccc1C=O`, for which the TGI is above 71.5 µM in test [1]; above 100 µM in [2]; above 100 µM in test [3]; above 100 µM in test [4]; above 100 µM in test [5]; above 100 µM in test [6]. This compound returned a TGI in test [7] above 100 µM.
In the case of `Nc1nc2c(c(=O)[nH]1)NC(CO)CN2` (centres undefined), the TGI in [1], in test [5], in [6] and in test [7] was above 100 µM each time.
In the case of `CN(C)c1ccc([O-])cc1.CN(C)c1ccc([O-])cc1.CN(C)c1ccc([O-])cc1.CN(C)c1ccc([O-])cc1.[Ti+4]`, the GI50 in [1] is above 100000 nM; in test [2], 25.9 µM; in test [3] it was above 100000 nM; in test [4] it was above 100 µM; in test [5], 50.7 µM; in test [6] it was 91000 nM. The GI50 in test [7] is above 100 µM. The TGI in [1], in [2], in test [3], in [4], in test [5] and in test [6] was above 100 µM throughout. Also, the TGI in test [7] was above 100 µM.
With `O=c1[nH]c(=O)n([C@@H]2C[C@H](CO)[C@H](O)C2)cc1/C=C/Br`, the TGI in test [2], in test [3], in [4], in test [5], in test [6] and in [7] was above 100 µM each time.
Turning to `CC(=O)Nc1ccc(C(=O)NN2C(=O)C(Cl)C2c2ccc([N+](=O)[O-])cc2)cc1` (centres undefined), the TGI in [1], in test [2], in test [3], in [4] and in test [7] was above 100 µM throughout.
Turning to `CCc1cccc(C(C)C)c1NC(=O)C(=O)CC(=O)c1c(C)n([O-])c2ccccc2[n+]1=O`, the TGI in test [1], in [2], in [3], in test [4], in test [5] and in test [6] was above 100 µM each time. The compound further gave a TGI in test [7] above 100 µM.
Regarding `CC12N=NN(c3ccc([N+](=O)[O-])cc3)C1(O)c1ccccc1C2=O` (centres undefined), the TGI in [1], in test [2], in [3], in [5] and in test [7] was above 100 µM in each case.
In the case of `CC[C@@]1(O)C[C@H](OC2CC(N(C)C)C(OC3CC(O)C(OC4CCC(=O)C(C)O4)C(C)O3)C(C)O2)c2c(cc3c(c2O)C(=O)c2c(O)cccc2C3=O)[C@H]1C(=O)OC` (some centres undefined), the GI50 in [1] was 6.81 nM and 28.2 nM and 23.6 nM; in test [2] it was 0.00422 µM; in test [3], 5.95 nM and 2.75 nM; in test [6] it was 9.12 nM and 7.88 nM. The TGI was 0.165 µM and 0.0552 µM in [1]; 1.14 µM in test [2]; 0.249 µM and 1.07 µM in [3]; 132 nM and 62 nM in [8]; 0.154 µM and 0.173 µM in [5]; 420 nM and 1730 nM in test [9]. For the same compound, the TGI was 1.15 µM and 1.17 µM in [6]; 472 nM and 2630 nM in [10]; 0.144 µM and 0.279 µM in test [7].
As for `Cn1nc(-c2ccccc2)c(C(=O)/C=C/c2ccc(F)cc2)c(N2CCCCC2)c1=O`, the TGI in test [1] is 60.2 µM; in test [2] it was 20.7 µM; in test [3], 19.2 µM; in test [5] it was 17.1 µM; in [6], 16.6 µM; in [7] it was 35.3 µM.
Consider `COC(=O)C(C(=O)C(=O)Nc1ccc(C(F)(F)F)cc1[N+](=O)[O-])c1csc(-n2nc(-c3ccccc3)cc2-c2ccccc2)n1` (centres undefined), for which the TGI in [2], in test [3], in test [4], in [5] and in test [7] was above 100 µM each time.
On to `CCO/C=C/C(C)C1(C(=O)OCC)CCCCC1=O` (centres undefined), for which the TGI in [1], in test [2], in test [3], in [4], in test [5] and in test [6] was above 100 µM each time. The TGI in test [7] is above 100 µM.
As for `CS(=O)(=O)OCCN1CCN(C(=O)c2cccc3c(Nc4ccc(S(=O)(=O)N=C(N)N)cc4)c4ccccc4nc23)CC1`, the TGI in test [1], in test [3], in [4], in test [5], in [6] and in test [7] was above 100 µM each time.
On to `NCCCOCC(=O)O`, for which the TGI in test [2], in [3], in test [4], in test [5] and in test [7] was above 100 µM in each case.
On to `CC1CC#CCOC(=O)CCCC1=O` (centres undefined), for which the TGI in test [1], in test [2], in test [3], in test [4], in test [5] and in test [6] was above 100 µM each time. In test [7], this compound came in with a TGI above 100 µM.
Turning to `O=C(Nc1cccc([N+](=O)[O-])c1)C(=O)C(C(=O)c1ccccc1-c1ccccc1)C1OC(=O)c2ccccc21` (centres undefined), the TGI in [1] is 41.4 µM; in test [2], 27.4 µM; in test [3], 53.7 µM; in [4] it was above 100 µM; in test [5], 33.1 µM; in test [6], 42.2 µM. Moreover, the TGI in test [7] came to 38.1 µM.
Turning to `COc1ccccc1N=C(N)N/N=C/c1c[nH]c2ccccc12`, the TGI in test [1] was 16.9 µM; in test [2], 13.1 µM; in test [3], 26.1 µM; in test [4] it was 25.1 µM; in [5], 15.5 µM; in [6] it was 31.7 µM. For the same compound, the TGI in test [7] was found to be 24.7 µM.
